In patent US6939865B2, “Pharmaceutical dronedarone composition for parenteral administration” (Sanofi-Aventis, priority 2000, dated 2005):
Structures can show the parent of a compound that is named as a salt. Where two headings read alike, the source gives them in different places.

Legend:
male rats = test: Local tolerance in animals (intravenous injection in caudal vein); assay type: in vivo; details: several days
Experimental: Tests were carried out for the purpose of evaluating the local tolerance of various aqueous compositions comprising dronedarone hydrochloride or only the corresponding vehicle as placebo.
To this end, a dose of one the aqueous compositions hereinbelow was administered daily for 5 days via the intravenous route to batches of 5 male rats. The injection was made in the caudal vein, preferably in the distal region, then in the median region and finally in the proximal region. The animals were then sacrificed on the 8th day and the tails were removed for the purpose of possible microscopic examination.

[1] = Aqueous solubility of dronedarone hydrochloride; assay type: physicochemical
Excerpt: As indicated above, the above β-cyclodextrin derivatives, when they are used in combination with an appropriate buffer, for example a phosphate buffer, in the compositions of the invention, make it possible in particular to increase the aqueous solubility of dronedarone or of its pharmaceutically acceptable salts.

[2] = Surface tension in aqueous solution (surfactant properties); assay type: physicochemical; details: with or without phosphate buffer
Experimental: This surfactant nature moreover proves to be as powerful in the presence as in the absence of a phosphate buffer and can be held as being partially responsible for a self-aggregation of dronedarone molecules in aqueous solution. In fact, this supramolecular organization in solution is due to the formation of dimers positioned head to tail and stacked in superimposed layers. These dimers, when they are administered by injection, lead to rupturing of the cell membrane and, consequently, to the appearance of inflammation at the injection site. Generally, these surfactant properties of dronedarone can be regarded as responsible for poor tolerance of the composition in which they are present.

| Structure (SMILES) | tolerance at the injection site (male rats; aqueous formulation 1.065 mg/ml dronedarone hydrochloride with hydroxypropyl-β-cyclodextrin) | local tolerance (male rats; aqueous formulation 1.065 mg/ml dronedarone hydrochloride with phosphate buffer) | solubility ([1]; aqueous medium, aqueous buffer, ambient temperature, pH=4.85, read-out: solubility in an aqueous medium) [µg/mL] | solubility ([1]; mono-sodium phosphate buffer (NaH2PO4), aqueous buffer, ambient temperature, pH range from 1.5 to 5, read-out: solubility in the presence of a mono-sodium phosphate buffer (NaH2PO4)) [µg/mL] | solubility in an aqueous medium ([1]; pH range from 1.5 to 5) | solubility in an aqueous medium ([1]; pH values of greater than 5.5) | solubility in the presence of a mono-sodium phosphate buffer (NaH2PO4) ([1]; pH=5.5) | solubility ([1]; phosphate buffer with hydroxypropyl-β-cyclodextrin, aqueous with cosolvent or surfactant or cyclodextrin, 100 mmolar phosphate buffer and 5% of hydroxypropyl-β-cyclodextrin, read-out: solubility) [µg/mL] | effect on surface tension [2] |
| --- | --- | --- | --- | --- | --- | --- | --- | --- | --- |
| CCCCc1oc2ccc(NS(C)(=O)=O)cc2c1C(=O)c1ccc(OCCCN(CCCC)CCCC)cc1 [dronedarone hydrochloride, 2-butyl-3-(4-[[3-(dibutylamino)propoxy]]benzoyl)-5-(methanesulphonamido)benzofuran] | marked intolerance | poor local tolerance | 500 | 2000 to 2250 | virtually constant | virtually negligible | virtually zero | ~6500 |  |
| CCCCc1oc2ccc(NS(C)(=O)=O)cc2c1C(=O)c1ccc(OCCCN(CCCC)CCCC)cc1 [dronedarone, 2-butyl-3-(4-[[3-(dibutylamino)propoxy]]benzoyl)-5-(methanesulphonamido)benzofuran] |  |  |  |  |  |  |  |  | marked decrease |
